From patent US20170304388A1, “NEW INDICATION OF CARDIOVASCULAR DRUGS FOR PREPARATION OF CANCER INHIBITION PHARMACEUTICAL COMPOSITION” (LAUNX BIOMEDICAL CO., LTD., priority 2014, published 2017)

Key:
Format in all cases: cell-based
[1] = system: A375 (Amelanotic Melanoma); experiment: Cell viability analysis (WST-1), A375; details: Table 4, repeated experiments, drug 10 μM
[2] = system: HCT116 (Colorectal Carcinoma); experiment: Cell viability analysis (WST-1), HCT116; details: Table 4, repeated experiments, drug 10 μM
[3] = system: HepG2 (Hepatocellular Carcinoma); experiment: Cell viability analysis (WST-1), HepG2; details: Table 4, repeated experiments, drug 10 μM
[4] = system: HeLa (Cervix Adenocarcinoma); experiment: Cell viability analysis (WST-1), HeLa; details: Table 4, repeated experiments, drug 10 μM
[5] = system: AGS (Gastric Adenocarcinoma); experiment: Cell viability analysis (WST-1), AGS; details: Table 4, repeated experiments, drug 10 μM
[6] = system: H1650 (Lung Adenocarcinoma); experiment: Cell viability analysis (WST-1), H1650; details: Table 4, repeated experiments, drug 10 μM
[7] = system: MKN-45 (Gastric Adenocarcinoma); experiment: Cell viability analysis (WST-1), MKN-45; details: Table 4, repeated experiments, drug 10 μM
[8] = system: TSGH-8301 (Urinary Bladder Carcinoma); experiment: Cell viability analysis (WST-1), TSGH-8301; details: Table 4, repeated experiments, drug 10 μM
[9] = system: A549 (Lung Adenocarcinoma); experiment: Cell viability analysis (WST-1), A549; details: Table 4, repeated experiments, drug 10 μM
[10] = system: MCF7 (Mammary Gland, Adenocarcinoma); experiment: Cell viability analysis (WST-1), MCF7; details: Table 4, repeated experiments, drug 10 μM
[11] = system: PC3 (Prostate Adenocarcinoma); experiment: Cell viability analysis (WST-1), PC3; details: Table 4, repeated experiments, drug 10 μM
[12] = system: LoVo (Colorectal Adenocarcinoma); experiment: Cell viability analysis (WST-1), LoVo; details: Table 4, repeated experiments, drug 10 μM
T24 = experiment: Cell viability analysis (WST-1), T24; details: Table 4, repeated experiments, drug 10 μM
Protocol: (§1) Subculture the different types of cancer cells. The cancer cells includes lung cancer, gastric cancer, hepatic cancer, colon cancer, skin cancer, cervical cancer, prostate cancer, bladder cancer, breast cancer, leukemia, pancreatic cancer, ovarian cancer, tongue cancer, osteosarcoma, and renal cancer. The cell numbers were counted and reseed as 2×10^6 in cell culture plate/flask. Then, the culture medium for culturing the cell lines was added to a volume of 10 ml, and the cells were cultured for 2-3 days. Then, the cells were suspended for loading into 96-well plates. The cell number was 3000 cells and the volume of the culture medium was 100 ul each well.
(§2) Removing the original culture medium from 96-well plate. Then add 100 μl of commercially drug at a concentration of 10 μM per well. After 72 hours, add the diluted WST-1 reagent to the well with 100 μl/well, and the diluted WST-1 reagent was acquired from the dilution of 9:1 medium and WST-1 stock reagent. Finally, the total volume of each well are 200 μl/well. Culture the 96-well plate at 37° C. for 30 to 90 minutes. Detecting and calculating the survival rate of each cancer cells with an ELISA reader at OD450 nm. The lower viability of cancer cells represents better inhibition effect via the drugs. Otherwise, the higher viability of cancer cells represents worse inhibition effect via the drugs.
(§3) According to the above mentioned cardiovascular drugs for cancer growth inhibition in Table 3, the inventors took the repeat experiments for the cardiovascular drugs to check the growth inhibitory effects of cancer cells by the cardiovascular drugs. […] 4.

Hep3B = experiment: Cell viability analysis (WST-1), Hep3B; details: Table 4, repeated experiments, drug 10 μM
Protocol: as §1, §2, §3

C-33A = experiment: Cell viability analysis (WST-1), C-33A; details: Table 4, repeated experiments, drug 10 μM
Protocol: as §1, §2, §3

MDA-MB231 = experiment: Cell viability analysis (WST-1), MDA-MB231; details: Table 4, repeated experiments, drug 10 μM
NIH-OVCAR-3 = experiment: Cell viability analysis (WST-1), NIH-OVCAR-3; details: Table 4, repeated experiments, drug 10 μM
Protocol: as §1, §2, §3

TOV-21G = experiment: Cell viability analysis (WST-1), TOV-21G; details: Table 4, repeated experiments, drug 10 μM
Protocol: as §1, §2, §3

AsPC-1 = experiment: Cell viability analysis (WST-1), AsPC-1; details: Table 4, repeated experiments, drug 10 μM
Protocol: as §1, §2, §3

BxPC-3 = experiment: Cell viability analysis (WST-1), BxPC-3; details: Table 4, repeated experiments, drug 10 μM
Protocol: as §1, §2, §3

SAS = experiment: Cell viability analysis (WST-1), SAS; details: Table 4, repeated experiments, drug 10 μM
Protocol: as §1, §2, §3

U2OS = experiment: Cell viability analysis (WST-1), U2OS; details: Table 4, repeated experiments, drug 10 μM
Protocol: as §1, §2, §3

BCC = experiment: Cell viability analysis (WST-1), BCC; details: Table 4, repeated experiments, drug 10 μM
786-O = experiment: Cell viability analysis (WST-1), 786-O; details: Table 4, repeated experiments, drug 10 μM
Protocol: as §1, §2, §3

cancer cell lines = experiment: Growth inhibitory effects on the panel of cancer cell lines; details: drug 10 μM, 72 hours, WST-1

CC(C)c1c(C(=O)Nc2ccccc2)c(-c2ccccc2)c(-c2ccc(F)cc2)n1CC[C@@H](O)C[C@@H](O)CC(=O)[O-].CC(C)c1c(C(=O)Nc2ccccc2)c(-c2ccccc2)c(-c2ccc(F)cc2)n1CC[C@@H](O)C[C@@H](O)CC(=O)[O-].[Ca+2] [Atorvastatin calcium (Lipitor), Atorvastatin calcium]
survival rate (viability) of cancer cells, A375 ([1]; 72 hours, WST-1): 23.01 | survival rate (viability) of cancer cells, HCT116 ([2]; 72 hours, WST-1): 82.55 | survival rate (viability) of cancer cells, HepG2 ([3]; 72 hours, WST-1): 95.92 | survival rate (viability) of cancer cells, HeLa ([4]; 72 hours, WST-1): 78.64 | survival rate (viability) of cancer cells, AGS ([5]; 72 hours, WST-1): 31.48 | survival rate (viability) of cancer cells, H1650 ([6]; 72 hours, WST-1): 69.55 | survival rate (viability) of cancer cells, MKN-45 ([7]; 72 hours, WST-1): 84.18 | survival rate (viability) of cancer cells, TSGH-8301 ([8]; 72 hours, WST-1): 70.59 | survival rate (viability) of cancer cells, A549 ([9]; 72 hours, WST-1): 90.1462 | survival rate (viability) of cancer cells, MCF-7 ([10]; 72 hours, WST-1): 79.08 | survival rate (viability) of cancer cells, PC-3 ([11]; 72 hours, WST-1): 56.4832 | survival rate (viability) of cancer cells, LoVo ([12]; 72 hours, WST-1): 103.0307 | survival rate (viability) of cancer cells, T24 (T24; 72 hours): 78.47 | survival rate (viability) of cancer cells, Hep3B (Hep3B; 72 hours): 91.86 | survival rate (viability) of cancer cells, C-33A (C-33A; 72 hours): 96.95 | survival rate (viability) of cancer cells, MDA-MB231 (MDA-MB231; 72 hours): 47.84 | survival rate (viability) of cancer cells, NIH-OVCAR-3 (NIH-OVCAR-3; 72 hours): 98.3 | survival rate (viability) of cancer cells, TOV-21G (TOV-21G; 72 hours): 34.04 | survival rate (viability) of cancer cells, AsPC-1 (AsPC-1; 72 hours): 81.1 | survival rate (viability) of cancer cells, BxPC-3 (BxPC-3; 72 hours): 81.03 | survival rate (viability) of cancer cells, SAS (SAS; 72 hours): 76.29 | survival rate (viability) of cancer cells, U2OS (U2OS; 72 hours): 86.25 | survival rate (viability) of cancer cells, BCC (BCC; 72 hours): 41.49 | survival rate (viability) of cancer cells, 786-O (786-O; 72 hours): 32.54 | inhibition effect on different cancer cell lines (in words) (cancer cell lines): significant inhibition effect

COCCOC(=O)C1=C(C)NC(C)=C(C(=O)OC/C=C/c2ccccc2)C1c1cccc([N+](=O)[O-])c1 (centres unmarked) [Cilnidipine]
viability at 10 µM ([1]; Homo sapiens, A-375, 72 h, WST-1, read-out: survival rate (viability) of cancer cells, A375): 47.1% | viability at 10 µM ([2]; Homo sapiens, HCT-116, 72 h, WST-1, read-out: survival rate (viability) of cancer cells, HCT116): 88.6% | viability at 10 µM ([3]; Homo sapiens, HepG2, 72 h, WST-1, read-out: survival rate (viability) of cancer cells, HepG2): 77.1% | viability at 10 µM ([4]; Homo sapiens, HeLa, 72 h, WST-1, read-out: survival rate (viability) of cancer cells, HeLa): 64.3% | viability at 10 µM ([5]; 72 h, WST-1, read-out: survival rate (viability) of cancer cells, AGS): 76.9% | viability at 10 µM ([6]; Homo sapiens, NCI-H1650, 72 h, WST-1, read-out: survival rate (viability) of cancer cells, H1650): 69% | viability at 10 µM ([7]; Homo sapiens, MKN-45, 72 h, WST-1, read-out: survival rate (viability) of cancer cells, MKN-45): 105% | viability at 10 µM ([8]; 72 h, WST-1, read-out: survival rate (viability) of cancer cells, TSGH-8301): 95.9% | viability at 10 µM ([9]; Homo sapiens, A549, 72 h, WST-1, read-out: survival rate (viability) of cancer cells, A549): 67.8% | viability at 10 µM ([10]; Homo sapiens, MCF7, 72 h, WST-1, read-out: survival rate (viability) of cancer cells, MCF-7): 64.6% | viability at 10 µM ([11]; 72 h, WST-1, read-out: survival rate (viability) of cancer cells, PC-3): 61.4% | viability at 10 µM ([12]; Homo sapiens, LoVo, 72 h, WST-1, read-out: survival rate (viability) of cancer cells, LoVo): 53.7% | viability at 10 µM (T24; Homo sapiens, T-24, 72 h, read-out: survival rate (viability) of cancer cells, T24): 108% | viability at 10 µM (Hep3B; Homo sapiens, Hep3B, 72 h, read-out: survival rate (viability) of cancer cells, Hep3B): 92.7% | viability at 10 µM (C-33A; Homo sapiens, C-33-A, 72 h, read-out: survival rate (viability) of cancer cells, C-33A): 93% | viability at 10 µM (MDA-MB231; Homo sapiens, MDA-MB-231, 72 h, read-out: survival rate (viability) of cancer cells, MDA-MB231): 86.3% | viability at 10 µM (NIH-OVCAR-3; Homo sapiens, OVCAR-3, 72 h, read-out: survival rate (viability) of cancer cells, NIH-OVCAR-3): 75.9% | viability at 10 µM (TOV-21G; Homo sapiens, TOV21G, 72 h, read-out: survival rate (viability) of cancer cells, TOV-21G): 62.9% | viability at 10 µM (AsPC-1; Homo sapiens, ASPC1, 72 h, read-out: survival rate (viability) of cancer cells, AsPC-1): 57.6% | viability at 10 µM (BxPC-3; Homo sapiens, BXPC-3, 72 h, read-out: survival rate (viability) of cancer cells, BxPC-3): 68.7% | viability at 10 µM (SAS; 72 h, read-out: survival rate (viability) of cancer cells, SAS): 38.9% | viability at 10 µM (U2OS; Homo sapiens, U2OS, 72 h, read-out: survival rate (viability) of cancer cells, U2OS): 43.1% | viability at 10 µM (BCC; BCC, 72 h, read-out: survival rate (viability) of cancer cells, BCC): 60.2% | viability at 10 µM (786-O; Homo sapiens, 786-0, 72 h, read-out: survival rate (viability) of cancer cells, 786-O): 86.7% | inhibition effect on different cancer cell lines (in words) (cancer cell lines): significant inhibition effect
